In test [1] the target is T1, INDY (Homo sapiens, UniProt Q86YT5). The experiment in a line: 14C-citrate uptake in HepG2 cells endogenously expressing INDY (NaCT). It is filed as cell-based. As to conditions: endogenous INDY. An outline of the steps: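 HepG2 cells, which express INDY endogenously, were preincubated with compound for 5 min at 37 °C in pH 6.5 Na+ citrate uptake buffer. 14C-citrate ([…]) was then added for 90 min at 37 °C. After washing and NaOH lysis, uptake was measured by scintillation counting, with 5 mM citrate as positive control.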
T1 sequence (Q86YT5 whole entry): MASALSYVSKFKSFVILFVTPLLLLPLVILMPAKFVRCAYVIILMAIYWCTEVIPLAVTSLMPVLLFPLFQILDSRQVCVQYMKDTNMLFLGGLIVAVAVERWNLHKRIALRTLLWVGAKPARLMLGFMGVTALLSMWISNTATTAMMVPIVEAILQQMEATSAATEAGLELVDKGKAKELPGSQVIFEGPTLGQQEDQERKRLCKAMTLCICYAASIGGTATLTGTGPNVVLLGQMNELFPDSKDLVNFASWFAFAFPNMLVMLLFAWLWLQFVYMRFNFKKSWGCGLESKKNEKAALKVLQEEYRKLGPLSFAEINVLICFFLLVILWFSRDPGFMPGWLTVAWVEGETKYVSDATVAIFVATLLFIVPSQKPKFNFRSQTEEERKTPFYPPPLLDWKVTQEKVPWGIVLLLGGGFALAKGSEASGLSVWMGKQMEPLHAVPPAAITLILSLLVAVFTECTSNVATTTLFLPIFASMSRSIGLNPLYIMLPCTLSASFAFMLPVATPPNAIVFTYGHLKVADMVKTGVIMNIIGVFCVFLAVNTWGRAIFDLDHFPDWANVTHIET

Test [2] concerns the target T1, INDY. The experiment in a line: 14C-citrate uptake in HEK293 cells overexpressing recombinant human INDY (NaCT). It is filed as cell-based. More on the design: expressed in transfected cells; host or cells: HEK293. In short, it runs like this:
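HEK293 cells overexpressing human NaCT, 50,000/well, preincubated 5-30 min at 37 °C with compound in pH 6.5 Na+ buffer. 14C-citrate ([…]) uptake then ran 20-90 min at 37 °C, followed by ice-cold washes, NaOH lysis and scintillation counting. 10 mM citrate served as positive control.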

SMILES strings stand for the structures. pIC50: −log10 of the molar value.

One may read the pIC50 as the IC50 on a negative log10 scale, so that one unit is a factor of ten. As for `Nc1ccc(CNC(=O)C2CCN(S(=O)(=O)c3cc(Cl)cc(Cl)c3)CC2)cc1` [Example 124, N-[(4-aminophenyl)methyl]-1-(3,5-dichlorobenzenesulfonyl)piperidine-4-carboxamide], the negative logarithm of the IC50 (pIC50) in test [1] is 6.05; in test [2], 5.74.

In the case of `O=C(NCc1ccccn1)C1CCN(S(=O)(=O)c2ccc(C3(C(F)(F)F)CC3)cc2)CC1` [Example 125, N-[(pyridin-2-yl)methyl]-1-{4-[1-(trifluoromethyl)cyclopropyl]benzenesulfonyl}piperidine-4-carboxamide], the figures for the negative logarithm of the IC50 (pIC50) in test [1] and in test [2] were 6.30 and 6.10, respectively.

On to `O=C(NCc1ccccn1)C1CCN(S(=O)(=O)c2cc(Br)cc(C(F)(F)F)c2)CC1` [Example 126, 1-[3-bromo-5-(trifluoromethyl)benzenesulfonyl]-N-[(pyridin-2-yl)methyl]piperidine-4-carboxamide], for which the negative logarithm of the IC50 (pIC50) is 6.40 in test [1] and 6.30 in test [2].

As for `O=C(NCc1ccccn1)C1CCN(S(=O)(=O)c2cc(C(F)(F)F)cc(C(F)(F)F)c2)CC1` [Example 127, 1-[3,5-bis(trifluoromethyl)benzenesulfonyl]-N-[(pyridin-2-yl)methyl]piperidine-4-carboxamide], the negative-log IC50 (pIC50) in test [1] is 5.92; in test [2], 5.49.

For `O=C(NCc1ccccn1)C1CCN(S(=O)(=O)c2ccc(C3CCCC3)cc2)CC1` [Example 129, 1-(4-cyclopentylbenzenesulfonyl)-N-[(pyridin-2-yl)methyl]piperidine-4-carboxamide], the pIC50 is 5.13 in test [1] and 5.80 in test [2].

For `O=C(NCc1ccccn1)C1CCN(S(=O)(=O)c2cc(Cl)cc(C(F)(F)F)c2)CC1` [Example 130, 1-[3-chloro-5-(trifluoromethyl)benzenesulfonyl]-N-[(pyridin-2-yl)methyl]piperidine-4-carboxamide], the negative logarithm of the IC50 (pIC50) is 6.30 in test [1] and 6.15 in test [2].

As to `O=C(NCc1ccccn1)C1CCN(S(=O)(=O)c2ccc(C3CCCCC3)cc2)CC1` [Example 131, 1-(4-cyclohexylbenzenesulfonyl)-N-[(pyridin-2-yl)methyl]piperidine-4-carboxamide], the figures for the pIC50 in test [1] and in test [2] were 5.33 and 5.21, respectively.

For `O=C(NCc1ccc(F)cc1)C1CCN(S(=O)(=O)c2cc(Cl)cc(Cl)c2)CC1` [Example 132, 1-(3,5-dichlorobenzenesulfonyl)-N-[(4-fluorophenyl)methyl]piperidine-4-carboxamide], the results for the pIC50 in test [1] and in test [2] were 6.15 and 5.70, respectively.

For the origin of these results see patent publication US20200087258A1, “INHIBITOR OF CITRATE TRANSPORTER AND THEIR USE IN THERAPY” (Eternygen GmbH, priority 2017, published 2020).
